One test deals with α5β1 integrin. Put plainly: Solid phase competition assay with biotinylated-F4, α5β1. Format: binding, human. Particulars: unlabeled F4, molar ratio 1/0 to 1/125, integrin coated at 26 × 10^−7 mol/L, 90 min, room temperature, N = 2. The text has this:
(§1) Figure 5. F4 directly binds to αvβ3 and α5β1 integrins. Direct interaction between αvβ3 or α5β1 integrin and F4 was studied using solid phase assays as described in the material and method section. The F4 peptide was biotinylated to allow its detection using the streptavidin-peroxidase complex. Different conditions were used. (a-b) The amounts of coated αvβ3 (a) or α5β1 integrin (b) were increased while biotinylated F4 peptide was kept constant. (c-d) The concentration of biotinylated F4 peptide was increased while coated amounts of αvβ3 (c) or α5β1 (d) integrins were kept constant. (e-f) Competitive assays were performed using increasing concentrations of F4 peptide while biotinylated-F4 peptide and αvβ3 (e) or α5β1 (f) integrins were kept constant. The solid phase assays were repeated twice (N = 2; n = 2)
(§2) Wells of a 96-well plate were coated with α5β1 (ref. 3230-A5-050, R&D systems) and/or αvβ3 integrin (ref. 3050-AV-050, R&D systems) at different concentrations ranging from 26 × 10^−7 mol/L to 0.1 × 10^−7 mol/L (100 μL per well in PBS). The 96-well plate was left overnight at room temperature. The coating was then blocked with TBS containing 5% nonfat dry milk, 1 mM MgCl2 and 1 mM CaCl2 for 2 h at room temperature. […] The intensity of the yellow coloration was measured at 450 nm with an LB940 spectrophotometer (Berthold Technologies). […]

In test [1] the test system is HUVEC (Human Umbilical Vein Endothelial Cells). In words: HUVEC proliferation (crystal violet). Format: cell-based. Particulars: 40 μM, 48 h, 5,000 HUVEC per well in ECGM, 560 nm, means ± SD (n = 16), N = 3. As to the method: Figure 1. […] 5,000 HUVEC were seeded in a 96 well plate and incubated with or without 40 μM NC1(XIX) or F4 for 48 hours. After washing, cells were fixed with glutaraldehyde and stained with crystal violet. Dye was eluted with 10% acetic acid and absorbance was read at 560 nm. The values are the means ± SD (n = 16). The experiment was repeated three times (N = 3) and the results presented in the figure correspond to the more representative one
Human Umbilical Vein Endothelial Cells (HUVEC) (Ref C-12253) were purchased from Promocell. They were grown in Endothelial Cell Growth Medium (ECGM) (Promocell, Ref C-22110: Basal medium supplemented with 0.02 mL/mL Fetal Calf Serum, 0.004 mL/mL Endothelial Cell Growth Supplement, 0.1 ng/mL Epidermal Growth Factor (recombinant human), 1 ng/mL Basic Fibroblast Growth Factor (recombinant human), 90 μg/mL Heparin, 1 μg/mL Hydrocortisone) at +37°C in a humid atmosphere containing 5% CO2. PromoCell Detach Kit was used for the detachment of HUVEC according to the manufacturer’s protocols (Promocell, ref C-41200).
For cell proliferation measurement, 5,000 HUVEC were seeded in 96-well plates and cultivated in ECGM with or without 40 μM NC1(XIX) or F4 at +37°C in a humid atmosphere containing 5% CO2. […] Dye was eluted with 10% (v/v) acetic acid and absorbance was read at 560 nm.

The subject of test [2] is αvβ3 integrin. Put plainly: Solid phase competition assay with biotinylated-F4, αvβ3. Particulars: unlabeled F4, molar ratio 1/0 to 1/125, integrin coated at 26 × 10^−7 mol/L, 90 min, room temperature, N = 2. Type of test: binding, human.
From the text: as §1, §2

Test [3] has as its system αvβ3 integrin. In words: Solid phase assay, direct binding to αvβ3. Particulars: solid phase assays. Further details: species or system human.
From the text: as §1, with “The solid phase assays were repeated twice (N = 2; n = 2)” left out
Wells of a 96-well plate were coated with α5β1 (ref. 3230-A5-050, R&D systems) and/or αvβ3 integrin (ref. 3050-AV-050, R&D systems) at different concentrations ranging from 26 × 10^−7 mol/L to 0.1 × 10^−7 mol/L (100 μL per well in PBS). […] The intensity of the yellow coloration was measured at 450 nm with an LB940 spectrophotometer (Berthold Technologies).
The optimum integrin amount for the coating was determined using the above protocol and the optimum ligand concentration was sought using different dilutions of the biotinylated-F4 peptide ranging from 20.8 × 10^−4 to 0.16 × 10^−4 mol/L.

We go through one sequence from PMC8312610, “F4, a collagen XIX-derived peptide, inhibits tumor angiogenesis through αvβ3 and α5β1 integrin interaction” (Cell Adhesion & Migration, 2021).

Entries after “also recorded” stand apart in the source; their conditions may differ. Positions of bridges follow the written chain, without caps; N, C: chain ends. No end group written: not given here.

With “CNPEDCLYPVSHAHQR (disulfide 1-6 (inferred)) [F4, collagen XIX-derived peptide, released by plasmin from type XIX collagen]”, in the test with α5β1 integrin, the “competition with biotinylated-F4 binding to α5β1” value is “decreased consequently”. For the same sequence, the “effect on HUVEC proliferation” value in test [1] is listed as “not significantly modified; also recorded: does not affect endothelial cell proliferation”. The “competition with biotinylated-F4 binding to αvβ3” value in the test on αvβ3 integrin [2] is given as “decreased consequently”. Besides, the “direct binding to αvβ3 (conclusion)” value in the test with αvβ3 integrin [3] was “binds to both αvβ3 and α5β1 integrins in a direct manner”.
